Laboratory results as given in US8008506B2, “Indazole compounds” (priority 2008, dated 2011).

Biological target: T1, human β2 adrenergic receptor (Homo sapiens, UniProt P07550)
T1 construct: expressed in transfected cells; host or cells: CHO (Chinese Hamster Ovary) cells, pcDNA3
Experiment: Test Example 3-A: human β2 adrenergic receptor agonist activity (method of Test Example 1-A)
Assay type: cell-based
Settings: Table 1; for β2 receptor EC50: Test Example 3-A; for β2 receptor I.A.: maximum response to isoproterenol taken as 100%
Experimental: [Worded in the source for another target; this target is reported under the same test.] The measurement of human β3 adrenergic receptor agonist activity is carried out using CHO (Chinese Hamster Ovary) cells transfected with pcDNA3 (manufactured by Invitrogen, Inc.) to which human β3 gene has been inserted. […] This human β3 cDNA fragment is used as a probe, and the full length human β3 gene is obtained from a human genomic library (manufactured by Clontech Laboratories, Inc.). The above cells are cultured in Ham's F-12 medium containing 10% fetal bovine serum and 400 μg/ml geneticin (manufactured by Invitrogen, Inc.). These cells are seeded on a 24-well plate to a concentration of 1×10^5 cells/well, and after being cultured for about 20 hours, the cells are left to stand in serum-free Ham's F-12 medium for 2 hours. A test compound is initially dissolved in DMSO, and then is diluted stepwise with Ham's F-12 containing 20 mmol/L HEPES, 1 mmol/L isobutylmethylxanthine, and 1 mmol/L ascorbic acid. The dilution is added to the cells. After the cells are cultured for 30 minutes, and then the medium is removed, followed by addition of 0.1 ml of 1 N NaOH to the cells. The cells are left to stand for 20 minutes, and then are added with 0.1 ml of 1 N acetic acid and are stirred. The resulting cell lysate is centrifuged, and then is subjected to quantification of cAMP with cAMP EIA kit (manufactured by Cayman Chemical Co.). […] Measurement of Human β2 Adrenergic Receptor Agonist Activity

T1 sequence (P07550 whole entry): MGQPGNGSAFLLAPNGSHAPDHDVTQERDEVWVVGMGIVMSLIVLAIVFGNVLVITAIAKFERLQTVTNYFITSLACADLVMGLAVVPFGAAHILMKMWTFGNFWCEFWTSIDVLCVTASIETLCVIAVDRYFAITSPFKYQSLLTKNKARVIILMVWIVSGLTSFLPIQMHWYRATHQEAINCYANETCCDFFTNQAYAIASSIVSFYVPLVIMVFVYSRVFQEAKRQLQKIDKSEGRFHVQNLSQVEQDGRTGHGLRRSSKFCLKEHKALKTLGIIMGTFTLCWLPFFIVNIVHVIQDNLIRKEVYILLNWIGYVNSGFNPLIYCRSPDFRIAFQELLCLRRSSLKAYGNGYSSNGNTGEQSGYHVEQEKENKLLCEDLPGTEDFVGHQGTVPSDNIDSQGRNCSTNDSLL

SMILES	β2 receptor EC50	β2 receptor I.A.
CN(C)C(=O)CCc1n[nH]c2cc(OCCNC[C@H](O)c3cccc(NS(C)(=O)=O)c3)ccc12 [Example 5, (R)-3-(6-(2-(2-hydroxy-2-(3-(methylsulfonamido)phenyl)ethylamino)ethoxy)-indazol-3-yl)-N,N-dimethylpropanamide]	a)	3.2%
COCc1n[nH]c2cc(OCCNC[C@H](O)c3cccc(NS(C)(=O)=O)c3)ccc12 [Example 6, (R)-N-(3-(1-hydroxy-2-(2-(3-methoxymethylindazol-6-yloxy)ethylamino)ethyl)phenyl)methanesulfonamide]	a)	7.6%
CCc1n[nH]c2cc(OCCNC[C@H](O)c3cccc(NS(C)(=O)=O)c3)ccc12 [Example 2, (R)-N-(3-(1-hydroxy-2-(2-(3-ethylindazol-6-yloxy)ethylamino)ethyl)phenyl)methanesulfonamide]	a)	3.0%
